Experimental data as given in patent US12006276B2, “Dibromobenzyl derivative, stereoisomer or salt thereof, and preparation method and application of dibromobenzyl derivative” (CHENGDU SHIBEIKANG BIOMEDICAL TECHNOLOGY CO., LTD., priority 2019, dated 2024).
Structures can show the parent of a compound that is named as a salt.

Assays:
[1] = system: SD rats; assay: Capillary expectoration test in rats; type: in vivo, rat; details: for 90-min length of phlegm expelled: SD rats, 15 mg/kg via tail vein, capillary tube in trachea, x ± s, n=10; for Expectorant effect compared with the ambroxol hydrochloride group (in words): rats, 15 mg/kg, P<0.05 vs ambroxol hydrochloride
Experimental: Capillary Expectoration Test in Rats
The female and male SD rats with body weights ranging from 180 g to 220 g are randomLy allocated into 9 groups (n=10 rats). Before measuring the length of phlegm expelled, the rats are prohibited to eat but allowed to drink for 12 hrs, and then administrated via tail veins with corresponding products (dissolved in normal saline to adjust pH) or normal saline. After 30 mins, urethane saline solution (1 g/kg) is injected intraperitoneally for anesthesia, and the rats are fixed in a supine position for neck incision and trachea separation. […] The angle between the capillary tube and the trachea is adjusted to collect the phlegm, and the expectoration effect is evaluated based on a total length (mm) of the phlegm in the capillary tube.

[2] = system: mice; assay: Phenol red expectoration test in mice; type: in vivo, mouse; details: for Excretory amount of phenol red (OD value): 30 mg/kg as free alkali, twice via tail vein, trachea phenol red at 546 nm, x ± s, n=12; for Excretory amounts of phenol red compared with the control group (in words) / Excretory amounts of phenol red compared with the ambroxol hydrochloride group (in words): 30 mg/kg; for Excretory amounts of phenol red compared with the control group (in words): p<0.05 vs control; for Excretory amounts of phenol red compared with the ambroxol hydrochloride group (in words): P<0.05 vs ambroxol hydrochloride
Experimental: Phenol Red Expectoration Test in Mice
Methods: Seventy-two female and male mice are randomLy allocated into a control group (normal saline), an Example 1 group (30 mg/kg, as free alkali), an Example 3 group (30 mg/kg, as free alkali), an Example 5 group (30 mg/kg, as free alkali), an Example 12 group (30 mg/kg, as free alkali) and an ambroxol hydrochloride group (30 mg/kg, as free alkali) (n=12 mice); These mice are administrated twice in successive via tail veins with corresponding products (dissolved in normal saline to adjust pH) or normal saline, and then receive 5% phenol red saline solution (0.5 g/kg) by hypodermic administration 15 mins after the last dose. […] The effects on excretory amounts of phenol red from trachea of mice among groups are analyzed and compared, and results are shown in Table 2: […]

[3] = Pharmacokinetics test in rats; type: in vivo, rat; details: intravenous; for MRT / clearance / half-life / AUC(0-inf): both sexes, rat, plasma, 10 mg/kg as free alkali; for MRT / clearance / half-life: n=6; for AUC(0-inf): n=6, read-out: AUC AUC0-inf; for Half-life, clearance, MRT and AUC compared with the ambroxol hydrochloride group (in words): P<0.05
Experimental: Pharmacokinetics Test in Rats
Methods: Twenty-four female and male rats are randomLy allocated into an Example 1 compound group (10 mg/kg, as free alkali), an Example 3 compound group (10 mg/kg, as free alkali), an Example 12 compound group and an ambroxol hydrochloride group (10 mg/kg, as free alkali) (n=6); These rats are given corresponding products (dissolved in normal saline to adjust pH) intravenously. About 0.2 mL of blood samples is respectively collected from jugular veins before and 15.0 min, 30.0 min, 1.0 h, 2.0 h, 3.0 h, 4.0 h, 6.0 h, 8.0 h, 12.0 h and 24.0 h after the administration, and then centrifuged at a high speed (7800×g) for 15 min in a tube containing EDTA-K2. The separated plasma is stored at −15° C.˜−35° C.

Row | MRT [3] | clearance [3] | half-life [3] | AUC(0-inf) [3] | SMILES | 90-min length of phlegm expelled [1] | Excretory amount of phenol red (OD value) [2] | Excretory amounts of phenol red compared with the control group (in words) [2] | Expectorant effect compared with the ambroxol hydrochloride group (in words) [1] | Excretory amounts of phenol red compared with the ambroxol hydrochloride group (in words) [2] | Half-life, clearance, MRT and AUC compared with the ambroxol hydrochloride group (in words) [3]
1 | 1.18 ± 0.2 h | 101 mL/min/kg | 1.98 ± 0.34 h | 1650 ± 71.9 ng·h/mL | Nc1c(Br)cc(Br)cc1CN[C@H]1CC[C@H](O)CC1 [Ambroxol hydrochloride, reference compound] | 29.9 ± 4.96 mm | 0.131 ± 0.015 OD value | significantly increase | – | – | –
2 | 2.58 ± 0.41 h | 34.9 mL/min/kg | 3.58 ± 0.45 h | 4470 ± 250 ng·h/mL | Nc1c(Br)cc(Br)cc1CNC12CC3CC(CC(O)(C3)C1)C2 [Example 1, 3-((2-amino-3,5-dibromobenzyl)amino)adamantane-1-ol] | 39.9 ± 5.35 mm | 0.220 ± 0.063 OD value | significantly increase | remarkably superior to the ambroxol hydrochloride | remarkably superior to the ambroxol hydrochloride | significantly superior to the ambroxol hydrochloride group
3 | 2.31 ± 0.36 h | 47.7 mL/min/kg | 3.12 ± 0.34 h | 3650 ± 180 ng·h/mL | Nc1c(Br)cc(Br)cc1CN[C@@H]1CCC[C@H]1O [Example 3, (1R,2R)-2-((2-amino-3,5-dibromobenzyl)amino)-cyclopentanol] | 37.8 ± 6.45 mm | 0.218 ± 0.052 OD value | significantly increase | remarkably superior to the ambroxol hydrochloride | remarkably superior to the ambroxol hydrochloride | significantly superior to the ambroxol hydrochloride group
4 | – | – | – | – | CC12CC3CC(C1)CC(NCc1cc(Br)cc(Br)c1N)(C3)C2 [Example 5, (2-amino-3,5-dibromobenzyl)-3-methyl-adamantane-1-amine] | 36.9 ± 5.45 mm | 0.201 ± 0.062 OD value | – | – | – | –
5 | – | – | – | – | Nc1c(Br)cc(Br)cc1CNC12CC3CC(C1)CC(C(F)(F)F)(C3)C2 [Example 6, (2-amino-3,5-dibromobenzyl)-3-trifluoromethyl-adamantane-1-amine] | 35.2 ± 4.79 mm | – | – | – | – | –
6 | – | – | – | – | Nc1c(Br)cc(Br)cc1CN[C@@H]1CCC[C@@H]1C(F)(F)F [Example 7, (1R,2S)-2-trifluoromethyl-((2-amino-3,5-dibromobenzyl)amino)-cyclopentane] | 31.8 ± 5.73 mm | – | – | – | – | –
7 | – | – | – | – | Nc1c(Br)cc(Br)cc1CNC12CC3CC(CC(C3)C1F)C2 (stereo not drawn) [Example 8, (2-amino-3,5-dibromobenzyl)-2-fluoro-adamantane-1-amine] | 35.8 ± 5.98 mm | – | – | – | – | –
8 | 2.65 ± 0.42 h | 35.8 mL/min/kg | 3.43 ± 0.35 h | 4490 ± 240 ng·h/mL | Nc1c(Br)cc(Br)cc1CNC1C2CC3CC1CC(O)(C3)C2 (stereo not drawn) [Example 12, 4-((2-amino-3,5-dibromobenzyl)amino)adamantane-1-ol] | 39.8 ± 5.31 mm | 0.221 ± 0.059 OD value | significantly increase | remarkably superior to the ambroxol hydrochloride | remarkably superior to the ambroxol hydrochloride | significantly superior to the ambroxol hydrochloride group
